Experimental data taken from patent publication US20230048132A1, “CYCLIN-DEPENDENT KINASE INHIBITORS” (SPV THERAPEUTICS INC., priority 2018, published 2023).
Like-named read-outs stand apart in the source and are kept apart here.

Assays:
Experiment in all cases: CDK inhibition assay (microfluidic LabChip, IC50 format)
CDK4-CYCLIND1 = CDK4-CYCLIND1 (Homo sapiens, UniProt P11802); conditions: a second value in parentheses for some compounds
Procedure: Inhibition assays were performed using microfluidic LabChip 300 Drug Discovery System from Caliper Life Sciences. […] The assay has a total volume of 10 μL consisting of 5 μL of enzyme and buffer and 5 μL of substrate and buffer. The test compounds were diluted in 100% dimethylsulfoxide (DMSO) using 3-fold dilution steps. […] Compounds were tested in a single well for each dilution and the final concentration of DMSO was maintained at 1%.
The assay buffer contained 100 mM HEPES, pH 7.5, 0.01% Triton X-100, 0.1% bovine serum albumin (BSA), 5 mM MgCl2; 1 mM dithiothreitol (DTT), 10 μM sodium orthovanadate, and 10 μM β-glycerophosphate.
The assay was conducted by adding 5 μL of enzyme, adenosine triphosphate (ATP) and buffer to an assay plate. A 100 nL aliquot of the diluted compounds were added to the plate. The assay was initiated by the addition of 5 μL of phosphoenolpyruvate substrate (PEP) in buffer. […] The reaction was terminated by the addition of EDTA. The plates were analyzed using a Caliper LabChip 3000.
Additional inhibition assays were performed as described above.
The assays were conducted as described above for the racemates.

CDK2-CYCLINA = target: T1, CDK2-CYCLINA (Homo sapiens, UniProt P24941); format: biochemical; conditions: read-out: CDK2 CyclinA IC50
T1 construct: purchased Millipore

CDK7 CyclinH = CDK7 CyclinH (Homo sapiens, UniProt P50613); format: biochemical
CDK9-CYCLINT1 = target: T2, CDK9-CYCLINT1 (Homo sapiens, UniProt P50750); format: biochemical; conditions: read-out: CDK9 CyclinT1 IC50
T2 construct: purchased Carna

CDK1/B = CDK1/B (Homo sapiens, UniProt P06493); format: biochemical
CDK6-CYCLIND3 = target: T3, CDK6-CYCLIND3 (Homo sapiens, UniProt Q00534); format: biochemical; conditions: read-out: CDK6 CyclinD3 IC50
T3 construct: purchased Carna

[1] = CDK4 CyclinD1 IC50, Table 4b, lower part

T2 sequence (P50750 whole entry): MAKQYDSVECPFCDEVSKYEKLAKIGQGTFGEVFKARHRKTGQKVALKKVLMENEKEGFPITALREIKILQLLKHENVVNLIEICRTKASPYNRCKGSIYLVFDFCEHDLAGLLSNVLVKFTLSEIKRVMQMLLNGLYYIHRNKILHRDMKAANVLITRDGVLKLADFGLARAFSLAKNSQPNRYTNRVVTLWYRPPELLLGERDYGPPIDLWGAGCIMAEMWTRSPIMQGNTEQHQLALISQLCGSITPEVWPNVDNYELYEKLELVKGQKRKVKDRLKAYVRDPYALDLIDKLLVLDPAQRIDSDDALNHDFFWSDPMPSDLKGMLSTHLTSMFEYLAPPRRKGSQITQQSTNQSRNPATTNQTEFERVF
T2 sequence (O60563 whole entry partner): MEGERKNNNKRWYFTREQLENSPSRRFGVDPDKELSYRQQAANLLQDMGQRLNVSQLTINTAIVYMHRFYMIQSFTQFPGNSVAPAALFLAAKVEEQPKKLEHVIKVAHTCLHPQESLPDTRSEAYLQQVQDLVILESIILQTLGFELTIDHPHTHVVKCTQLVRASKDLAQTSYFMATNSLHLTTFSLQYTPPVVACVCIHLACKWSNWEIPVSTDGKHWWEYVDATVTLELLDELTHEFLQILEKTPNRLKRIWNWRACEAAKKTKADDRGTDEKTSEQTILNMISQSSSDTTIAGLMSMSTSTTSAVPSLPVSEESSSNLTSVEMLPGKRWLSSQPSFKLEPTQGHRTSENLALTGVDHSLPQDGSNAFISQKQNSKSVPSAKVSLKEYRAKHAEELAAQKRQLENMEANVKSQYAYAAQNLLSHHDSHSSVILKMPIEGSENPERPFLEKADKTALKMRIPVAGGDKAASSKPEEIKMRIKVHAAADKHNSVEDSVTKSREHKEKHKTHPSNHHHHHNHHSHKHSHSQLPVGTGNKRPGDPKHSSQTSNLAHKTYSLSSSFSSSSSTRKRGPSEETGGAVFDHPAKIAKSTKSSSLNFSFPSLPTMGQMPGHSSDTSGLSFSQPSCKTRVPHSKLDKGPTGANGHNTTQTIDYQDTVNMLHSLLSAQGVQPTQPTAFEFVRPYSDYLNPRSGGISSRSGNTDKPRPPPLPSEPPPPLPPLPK
T3 sequence (Q00534 whole entry): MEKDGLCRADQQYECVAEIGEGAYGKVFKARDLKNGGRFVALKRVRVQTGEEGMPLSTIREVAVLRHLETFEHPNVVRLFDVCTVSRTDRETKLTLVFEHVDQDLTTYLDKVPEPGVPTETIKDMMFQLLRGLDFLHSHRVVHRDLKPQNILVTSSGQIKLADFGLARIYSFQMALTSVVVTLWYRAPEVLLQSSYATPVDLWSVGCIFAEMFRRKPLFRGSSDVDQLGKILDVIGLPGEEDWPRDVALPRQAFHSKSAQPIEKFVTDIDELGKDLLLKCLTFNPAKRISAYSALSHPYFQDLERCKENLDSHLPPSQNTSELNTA
T3 sequence (P30281 whole entry partner): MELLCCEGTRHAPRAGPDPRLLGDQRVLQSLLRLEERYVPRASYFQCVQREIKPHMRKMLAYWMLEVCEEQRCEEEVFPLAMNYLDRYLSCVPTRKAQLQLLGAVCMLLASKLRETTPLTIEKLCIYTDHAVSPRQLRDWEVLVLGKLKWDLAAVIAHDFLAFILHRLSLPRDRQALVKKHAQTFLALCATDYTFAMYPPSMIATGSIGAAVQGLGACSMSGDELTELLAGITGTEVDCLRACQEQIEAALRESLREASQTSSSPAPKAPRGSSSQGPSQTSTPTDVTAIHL
Chain of CDK1/B (P06493 whole entry, species assumed): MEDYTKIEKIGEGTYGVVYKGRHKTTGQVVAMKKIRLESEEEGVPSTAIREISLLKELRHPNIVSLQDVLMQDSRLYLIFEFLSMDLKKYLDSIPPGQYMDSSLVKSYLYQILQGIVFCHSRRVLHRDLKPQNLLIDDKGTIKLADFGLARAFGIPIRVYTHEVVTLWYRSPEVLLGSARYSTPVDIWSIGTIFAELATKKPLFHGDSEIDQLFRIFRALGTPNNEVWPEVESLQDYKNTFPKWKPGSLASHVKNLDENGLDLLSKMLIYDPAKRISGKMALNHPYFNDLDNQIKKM
Chain of CDK1/B (P14635 whole entry partner, species assumed): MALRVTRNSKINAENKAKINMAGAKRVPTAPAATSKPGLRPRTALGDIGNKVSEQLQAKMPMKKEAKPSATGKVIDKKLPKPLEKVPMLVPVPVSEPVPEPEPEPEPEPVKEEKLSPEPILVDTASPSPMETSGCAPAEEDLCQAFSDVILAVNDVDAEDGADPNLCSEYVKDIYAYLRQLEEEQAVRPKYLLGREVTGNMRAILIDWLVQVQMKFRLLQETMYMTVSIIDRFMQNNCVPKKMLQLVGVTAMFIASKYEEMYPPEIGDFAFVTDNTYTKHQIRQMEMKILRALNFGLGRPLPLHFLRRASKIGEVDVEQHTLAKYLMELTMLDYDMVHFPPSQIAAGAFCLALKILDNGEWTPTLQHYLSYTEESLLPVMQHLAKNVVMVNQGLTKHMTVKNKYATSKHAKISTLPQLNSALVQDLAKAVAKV
Chain of CDK7 CyclinH (P50613 whole entry): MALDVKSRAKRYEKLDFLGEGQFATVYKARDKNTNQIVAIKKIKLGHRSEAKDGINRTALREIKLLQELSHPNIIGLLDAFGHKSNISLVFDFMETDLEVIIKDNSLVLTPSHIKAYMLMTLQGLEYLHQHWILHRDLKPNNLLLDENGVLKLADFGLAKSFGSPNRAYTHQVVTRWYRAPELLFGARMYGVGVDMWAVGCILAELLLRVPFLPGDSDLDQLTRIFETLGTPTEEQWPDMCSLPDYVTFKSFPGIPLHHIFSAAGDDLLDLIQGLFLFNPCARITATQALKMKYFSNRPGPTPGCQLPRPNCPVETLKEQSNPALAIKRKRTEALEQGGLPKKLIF
Chain of CDK7 CyclinH (P51946 whole entry partner): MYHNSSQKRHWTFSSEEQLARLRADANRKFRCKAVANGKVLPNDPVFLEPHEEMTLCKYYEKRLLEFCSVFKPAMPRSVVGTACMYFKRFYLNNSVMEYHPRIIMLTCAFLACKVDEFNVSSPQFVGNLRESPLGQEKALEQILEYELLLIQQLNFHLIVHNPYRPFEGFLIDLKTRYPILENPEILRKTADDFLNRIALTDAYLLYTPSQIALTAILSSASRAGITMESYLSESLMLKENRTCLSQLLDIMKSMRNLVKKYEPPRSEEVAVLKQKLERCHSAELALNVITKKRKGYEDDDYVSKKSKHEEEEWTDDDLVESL
Chain of CDK7 CyclinH (P51948 whole entry partner): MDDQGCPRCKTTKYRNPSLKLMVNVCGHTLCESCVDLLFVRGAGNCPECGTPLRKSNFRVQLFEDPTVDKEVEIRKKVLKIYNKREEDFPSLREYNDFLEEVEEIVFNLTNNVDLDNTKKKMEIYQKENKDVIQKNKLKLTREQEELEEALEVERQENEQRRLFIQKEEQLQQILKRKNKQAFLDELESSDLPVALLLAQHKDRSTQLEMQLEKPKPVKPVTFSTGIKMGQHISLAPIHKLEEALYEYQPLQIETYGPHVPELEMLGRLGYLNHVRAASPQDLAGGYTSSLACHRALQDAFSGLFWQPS
Chain of CDK4-CYCLIND1 (P11802 whole entry): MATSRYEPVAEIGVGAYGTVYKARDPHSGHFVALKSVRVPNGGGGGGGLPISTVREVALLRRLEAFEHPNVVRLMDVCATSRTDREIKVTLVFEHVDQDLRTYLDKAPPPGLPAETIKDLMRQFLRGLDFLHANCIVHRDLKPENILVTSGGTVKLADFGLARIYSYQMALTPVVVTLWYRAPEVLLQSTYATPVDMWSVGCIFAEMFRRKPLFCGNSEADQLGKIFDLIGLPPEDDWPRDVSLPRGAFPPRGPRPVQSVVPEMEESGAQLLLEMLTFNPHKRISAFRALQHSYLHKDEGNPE
Chain of CDK4-CYCLIND1 (P24385 whole entry partner): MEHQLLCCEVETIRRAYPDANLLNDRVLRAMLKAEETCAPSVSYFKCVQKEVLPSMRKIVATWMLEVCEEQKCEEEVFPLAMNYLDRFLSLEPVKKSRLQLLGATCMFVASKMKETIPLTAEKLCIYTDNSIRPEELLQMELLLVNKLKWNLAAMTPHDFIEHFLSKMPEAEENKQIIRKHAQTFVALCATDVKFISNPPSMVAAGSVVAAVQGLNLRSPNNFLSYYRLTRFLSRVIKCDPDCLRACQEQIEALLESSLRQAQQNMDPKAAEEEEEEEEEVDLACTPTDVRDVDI

| SMILES | IC50 (CDK4-CYCLIND1; [1]) | IC50 (CDK2-CYCLINA; Table 4b, lower part) | IC50 (CDK7 CyclinH; Table 4b, lower part) | IC50 (CDK9-CYCLINT1; Table 4b, lower part) | IC50 (CDK1/B; Table 4b, lower part) | IC50 (CDK4-CYCLIND1; CDK4 CyclinD1 IC50, Table 4a) | IC50 (CDK2-CYCLINA; Table 4a) | IC50 (CDK7 CyclinH; Table 4a) | IC50 (CDK9-CYCLINT1; Table 4a) | IC50 (CDK1/B; Table 4a) | IC50 (CDK6-CYCLIND3; Table 4a) | IC50 (CDK6-CYCLIND3; Table 4b, lower part) |
| --- | --- | --- | --- | --- | --- | --- | --- | --- | --- | --- | --- | --- |
| CS(=O)(=O)N1CCC(Nc2ncc3c(n2)N(C2CCCC2)C(=O)[C@]2(CCNC2=O)C3)CC1 [Example D117, (S)-8-cyclopentyl-2-((1-(methylsulfonyl)piperidin-4-yl)amino)-5,8-dihydro-7H-spiro[pyrido[2,3-d]pyrimidine-6,3′-pyrrolidine]-2′,7-dione] | < 3.2 nM | < 3.2 nM | 215 nM | 3.51 nM | 4.46 nM |  |  |  |  |  |  |  |
| C[C@]1(O)CC[C@@H](Nc2ncc3c(n2)N(C2CCCC2)C(=O)[C@]2(CCNC2=O)C3)CC1 [Example D126, (S)-8-cyclopentyl-2-(((1s,4R)-4-hydroxy-4-methylcyclohexyl)amino)-5,8-dihydro-7H-spiro[pyrido[2,3-d]pyrimidine-6,3′-pyrrolidine]-2′,7-dione] | 22.7 nM | 803 nM | > 10000 nM | 25.4 nM | 2200 nM |  |  |  |  |  |  |  |
| CC(C)N1CCC(Nc2ncc3c(n2)N(C2CCCC2)C(=O)[C@]2(CCNC2=O)C3)CC1 [Example D125, (S)-8-cyclopentyl-2-((1-isopropylpiperidin-4-yl)amino)-5,8-dihydro-7H-spiro[pyrido[2,3-d]pyrimidine-6,3′-pyrrolidine]-2′,7-dione] |  | 1140 nM | 557 nM | 20.5 nM | 1160 nM |  |  |  |  |  |  |  |
| CN1CCN(c2ccc(Nc3ncc4c(n3)N(C3CCCC3)C(=O)N([C@@H]3CCNC3)C4)cc2)CC1 [Example D74, (R)-1-cyclopentyl-7-((4-(4-methylpiperazin-1-yl)phenyl)amino)-3-(pyrrolidin-3-yl)-3,4-dihydropyrimido[4,5-d]pyrimidin-2(1H)-one] |  |  |  |  |  | 2740 nM | > 10000 nM | > 10000 nM | > 10000 nM | > 10000 nM |  |  |
| CN1CCN(c2ccc(Nc3ncc4c(n3)N(C3CCCC3)C(=O)N(c3ccccc3F)C4)cc2F)CC1 [Example D80, 1-cyclopentyl-7-((3-fluoro-4-(4-methylpiperazin-1-yl)phenyl)amino)-3-(2-fluorophenyl)-3,4-dihydropyrimido[4,5-d]pyrimidin-2(1H)-one] |  |  |  |  |  | 3.43 nM | 7590 nM | > 10000 nM | > 10000 nM | > 10000 nM |  |  |
| CC1CN(c2ccc(Nc3ncc4c(n3)N(C3CCCC3)C(=O)[C@]3(CCNC3=O)C4)cc2)CC(C)N1 (stereo partly drawn) [Example D199, (6S)-8-cyclopentyl-2-((4-(3,5-dimethylpiperazin-1-yl)phenyl)amino)-5,8-dihydro-7H-spiro[pyrido[2,3-d]pyrimidine-6,3′-pyrrolidine]-2′,7-dione] | < 3.2 nM | 74.6 nM | 406 nM | 3.74 nM | 353 nM |  |  |  |  |  |  |  |
| CN1CCC(c2ccc(Nc3ncc4c(n3)N(C3CCCC3)C(=O)[C@]3(CCNC3=O)C4)cc2)CC1 [Example D135, (S)-8-cyclopentyl-2-((4-(1-methylpiperidin-4-yl)phenyl)amino)-5,8-dihydro-7H-spiro[pyrido[2,3-d]pyrimidine-6,3′-pyrrolidine]-2′,7-dione] | < 3.2 nM | 89.8 nM | 222 nM | 4.31 nM | 205 nM |  |  |  |  |  |  |  |
| CC(C)c1ccc(Nc2ncc3c(n2)N(C2CCCC2)C(=O)[C@]2(CCNC2=O)C3)cc1 [Example D115, (S)-8-cyclopentyl-2-((4-isopropylphenyl)amino)-5,8-dihydro-7H-spiro[pyrido[2,3-d]pyrimidine-6,3′-pyrrolidine]-2′,7-dione] |  | 135 nM | > 10000 nM | 9.03 nM | 563 nM |  |  |  |  |  |  |  |
| CC(C)c1ccc(Nc2ncc3c(n2)N(C2CCCC2)C(=O)[C@]2(CCNC2=O)C3)cc1F [Example D130, (S)-8-cyclopentyl-2-((3-fluoro-4-isopropylphenyl)amino)-5,8-dihydro-7H-spiro[pyrido[2,3-d]pyrimidine-6,3′-pyrrolidine]-2′,7-dione] |  | 242 nM | > 10000 nM | 12.3 nM | 1060 nM |  |  |  |  |  |  |  |
| CC(C)n1cc(-c2ccc(Nc3ncc4c(n3)N(C3CCCC3)C(=O)[C@]3(CCNC3=O)C4)nc2)cn1 [Example D170, (S)-8-cyclopentyl-2-((5-(1-isopropyl-1H-pyrazol-4-yl)pyridin-2-yl)amino)-5,8-dihydro-7H-spiro[pyrido[2,3-d]pyrimidine-6,3′-pyrrolidine]-2′,7-dione] |  |  |  |  |  | 42.3 nM | 8560 nM | > 100000 nM | 390 nM |  | 53.1 nM |  |
| CCN1CCN(Cc2ccc(Nc3ncc4c(n3)N(C35CC(C3)C5)C(=O)[C@]3(CCNC3=O)C4)nc2)CC1 [Example D190, (S)-8-(bicyclo[1.1.1]pentan-1-yl)-2-((5-((4-ethylpiperazin-1-yl)methyl)pyridin-2-yl)amino)-5,8-dihydro-7H-spiro[pyrido[2,3-d]pyrimidine-6,3′-pyrrolidine]-2′,7-dione] | 11400 nM | > 100000 nM | > 100000 nM | 21800 nM |  |  |  |  |  |  |  | 34200 nM |
| CC(C)N1CCN(c2ccc(Nc3ncc4c(n3)N(C35CC(C3)C5)C(=O)[C@]3(CCNC3=O)C4)nc2)CC1 [Example D189, (S)-8-(bicyclo[1.1.1]pentan-1-yl)-2-((5-(4-isopropylpiperazin-1-yl)pyridin-2-yl)amino)-5,8-dihydro-7H-spiro[pyrido[2,3-d]pyrimidine-6,3′-pyrrolidine]-2′,7-dione] | 28700 nM | > 100000 nM | > 100000 nM | 17700 nM |  |  |  |  |  |  |  | 41600 nM |
| O=C1NCC[C@@]12Cc1cnc(Nc3ccc(N4CCC(N5CCOCC5)CC4)cc3)nc1N(C1CCCC1)C2=O [Example D182, (S)-8-cyclopentyl-2-((4-(4-morpholinopiperidin-1-yl)phenyl)amino)-5,8-dihydro-7H-spiro[pyrido[2,3-d]pyrimidine-6,3′-pyrrolidine]-2′,7-dione] | < 0.56 nM | 115 nM | 591 nM | 16.2 nM |  |  |  |  |  |  |  | < 0.56 nM |
| Cc1cc(Nc2ncc3c(n2)N(C2CCCC2)C(=O)[C@]2(CCNC2=O)C3)ccc1N1CCNCC1 [Example D156, (S)-8-cyclopentyl-2-((3-methyl-4-(piperazin-1-yl)phenyl)amino)-5,8-dihydro-7H-spiro[pyrido[2,3-d]pyrimidine-6,3′-pyrrolidine]-2′,7-dione] |  |  |  |  |  | 0.92 nM | 19.8 nM | 166 nM | 3.91 nM |  | 2.3 nM |  |
| Cc1cc(N2CCN(C(C)C)CC2)ccc1Nc1ncc2c(n1)N(C1CCCC1)C(=O)[C@]1(CCNC1=O)C2 [Example D164, (S)-8-cyclopentyl-2-((4-(4-isopropylpiperazin-1-yl)-2-methylphenyl)amino)-5,8-dihydro-7H-spiro[pyrido[2,3-d]pyrimidine-6,3′-pyrrolidine]-2′,7-dione] |  |  |  |  |  | 9.05 nM | 744 nM | 3160 nM | 71.9 nM |  | 13.7 nM |  |
| O=C1NCC[C@@]12Cc1cnc(Nc3ccc(OCCN4CCCC4)c(F)c3)nc1N(C1CCCC1)C2=O [Example D180, (S)-8-cyclopentyl-2-((3-fluoro-4-(2-(pyrrolidin-1-yl)ethoxy)phenyl)amino)-5,8-dihydro-7H-spiro[pyrido[2,3-d]pyrimidine-6,3′-pyrrolidine]-2′,7-dione] |  |  |  |  |  | 1.79 nM | 98.7 nM | 266 nM | 2.84 nM |  | 4.35 nM |  |
| CC(C)N1CCN(c2ccc(Nc3ncc4c(n3)N(C35CC(C3)C5)C(=O)[C@]3(CCNC3=O)C4)cc2)CC1 [Example D187, (S)-8-(bicyclo[1.1.1]pentan-1-yl)-2-((4-(4-isopropylpiperazin-1-yl)phenyl)amino)-5,8-dihydro-7H-spiro[pyrido[2,3-d]pyrimidine-6,3′-pyrrolidine]-2′,7-dione] | 14.5 nM | 1370 nM | 1680 nM | 60.7 nM |  |  |  |  |  |  |  | 33.6 nM |
| O=C1NCC[C@@]12Cc1cnc(Nc3ccc(N4CCNCC4)nc3)nc1N(C1CCCC1)C2=O [Example D149, (S)-8-cyclopentyl-2-((6-(piperazin-1-yl)pyridin-3-yl)amino)-5,8-dihydro-7H-spiro[pyrido[2,3-d]pyrimidine-6,3′-pyrrolidine]-2′,7-dione] |  |  |  |  |  | 1.22 nM | 35.6 nM | 340 nM | 7.52 nM |  | 2.82 nM |  |
| CN1CCN(c2ccc(Nc3ncc4c(n3)N(C35CC(C3)C5)C(=O)[C@]3(CCNC3=O)C4)cc2F)CC1 [Example D185, (S)-8-(bicyclo[1.1.1]pentan-1-yl)-2-((3-fluoro-4-(4-methylpiperazin-1-yl)phenyl)amino)-5,8-dihydro-7H-spiro[pyrido[2,3-d]pyrimidine-6,3′-pyrrolidine]-2′,7-dione] | 15.6 nM | 1060 nM | 1170 nM | 36.7 nM |  |  |  |  |  |  |  | 31.2 nM |
| Cc1cc(N2CCNCC2)ccc1Nc1ncc2c(n1)N(C1CCCC1)C(=O)[C@]1(CCNC1=O)C2 [Example D162, (S)-8-cyclopentyl-2-((2-methyl-4-(piperazin-1-yl)phenyl)amino)-5,8-dihydro-7H-spiro[pyrido[2,3-d]pyrimidine-6,3′-pyrrolidine]-2′,7-dione] |  |  |  |  |  | 5.34 nM | 382 nM | 3240 nM | 61.9 nM |  | 10.4 nM |  |
